Assay results from patent publication US10294202B2, “Pyrrolidinones as herbicides” (FMC Corporation, priority 2013, dated 2019).

Key:
waterplantain = test: Test F flood (paddy) test; type: in vivo, Alisma plantago-aquatica; conditions: 21 d, scale 0-100
Excerpt: (§1) Three plastic pots (ca. 16-cm diameter) per rate were partially filled with sterilized Tama silt loam soil comprising a 35:50:15 ratio of sand, silt and clay and 2.6% organic matter. Separate plantings for each of the three pots were as follows. Seeds from the U.S. of monochoria (Monochoria vaginalis), sedge, umbrella (small-flower umbrella sedge, Cyperus difformis), bulrush, […] bulrush, Scirpus juncoides), and […] (purple […] coccinea), were planted into one 16-cm pot for each rate. Seeds from the U.S. of flatsedge, rice (rice flatsedge, Cyperus iria), sprangletop, Brdd. (bearded sprangletop, Leptochloa fascicularis), one stand of 9 or 10 water seeded rice seedlings (Rice, W.S. Jap, Oryza sativa cv. 'Japonica-[…]' or Rice, W.S. Ind, 'Indica'), and two stands of 3 or 4 seedlings of rice, transplanted (transplanted rice, Oryza sativa cv. 'Japonica-[…]') were planted into one 16-cm pot for each rate. Seeds from the U.S. of barnyardgrass (Echinochloa crus-galli), […] (common […], Alisma plantago-aquatica), and watergrass, late (late watergrass, Echinochloa oryzicola) were planted into one 16-cm pot for each rate. Plantings were sequential so that crop and weed species were at the 2.0 to 2.5-leaf stage at time of treatment. Potted plants were grown in a greenhouse with day/night temperature settings of 30/27° C., and supplemental balanced lighting was provided to maintain a 16-h photoperiod. Test pots were maintained in the greenhouse until test completion. At time of treatment, test pots were flooded to 3 cm above the soil surface, treated by application of test compounds directly to the paddy water, and then maintained at that water depth for the duration of the test. Effects of treatments on rice and weeds were visually evaluated by comparison to untreated controls after 21 d. Plant response ratings, summarized in Table F, are based on a scale of 0 to 100 where 0 is no effect and 100 is complete control. A dash (-) response means no test result.

giant foxtail (SETFA) = test: Test H preemergence mixture test (Colby); type: in vivo, Setaria faberii; conditions: for Plant response rating, Obsd., SETFA: 21 d after treatment, scale 0 to 100; for SETFA Obsd.: applied alone, 21 d, mean of three replicates, scale 0-100
Excerpt: Colby's Equation was used to determine the herbicidal effects expected from the mixtures. Colby's Equation (Colby, S. R. “Calculating Synergistic and Antagonistic Responses of Herbicide Combinations,” Weeds, 15(1), pp 20-22 (1967)) calculates the expected additive effect of herbicidal mixtures and for two active ingredients is of the form: Pa+b=Pa+Pb−(PaPb/100)
where • Pa+b is the percentage effect of the mixture expected from additive contribution of the individual components: • Pa is the observed percentage effect of the first active ingredient at the same use rate as in the mixture, and • Pb is the observed percentage effect of the second active ingredient at the same use rate as in the mixture. In the following Tables, rates are shown in grams of active ingredient per hectare (g a.i./ha); “Obsd.” is the observed effect. “Exp.” is the expected effect calculated from Colby's Equation.
This test evaluated the effect of mixtures of compound 80 with several commercial herbicides on four plant species. Seeds of plant species selected from corn (ZEAMD, Zea mays), soybean (GLXMA, Glycine max), waterhemp (common waterhemp, AMATA, Amaranthus rudis), and giant foxtail (SETFA, Setaria faberii) were planted into a silt loam soil and treated preemergence with test chemicals formulated in a non-phytotoxic solvent mixture which included a surfactant and applied using a volume of 281 L/ha. Each treatment was replicated three times. Treated plants and controls were maintained in a greenhouse using supplemental lighting to maintain a photoperiod of about 16 h; daytime and nighttime temperatures were about 24-30° C. and 19-21° C., respectively. Nutrients were applied using a balanced fertilizer applied through the watering system. At 21 d after treatment, all species were compared to controls and visually evaluated. Plant response ratings were calculated as the means of the three replicates, are summarized in Tables H1 through H5, and are based on a scale of 0 to 100 where 0 is no effect and 100 is complete control. A dash (-) response means no test result. The Expected (Exp.) results were calculated using Colby's Equation as described for Test G above.

waterhemp (AMATA) = test: Test H preemergence mixture test (Colby); type: in vivo, Amaranthus rudis; conditions: for Plant response rating, Obsd., AMATA: 21 d after treatment, scale 0 to 100; for AMATA Obsd.: applied alone, 21 d, mean of three replicates, scale 0-100
ducksalad (HETLI) = test: Test G paddy mixture test (Colby); type: in vivo, Heteranthera limosa; conditions: applied alone, 14 d; for HETLI Obsd.: scale 0-100; for HETLI Obsd. plant response rating (scale 0 to 100): flooded
Method in brief: (§2)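 Weeds sown in Tama soil tubs; barnyardgrass and transplanted japonica rice grown in plug flats. Treated at 2.0–2.5 leaf stage; visual rating 0–100 versus controls after 14 d in greenhouse. Expected mixture effect calculated with Colby's equation; rates in g a.i. per area.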

barnyardgrass (ECHCG) = test: Test G paddy mixture test (Colby); type: in vivo, Echinochloa crus-galli; conditions: applied alone, 14 d; for ECHCG Obsd.: scale 0-100; for ECHCG Obsd. plant response rating (scale 0 to 100): flooded
Method in brief: as §2

[1] = test system: small-flower umbrella sedge (CYPDI); test: Test G paddy mixture test (Colby); type: in vivo, Cyperus difformis; conditions: applied alone, 14 d; for CYPDI Obsd.: scale 0-100; for CYPDI Obsd. plant response rating (scale 0 to 100): flooded
Method in brief: as §2

Rice, Water Seeded = test: Test F flood (paddy) test; type: in vivo, Oryza sativa; conditions: 62 g ai/ha, 21 d, scale 0-100
Excerpt: as §1, with “Potted plants were grown in a greenhouse with day/night temperature settings of 30/27° C., and supplemental balanced lighting was provided to maintain a 16-h photoperiod. Test pots were maintained in the greenhouse until test completion. At time of treatment, test pots were flooded to 3 cm above the soil surface, treated by application of test compounds directly to the paddy water, and then maintained at that water depth for the duration of the test.” left out, “Plant response ratings, summarized in Table F, are based on a scale of 0 to 100 where 0 is no effect and 100 is complete control. A dash (-) response means no test result.” left out

Which results are given for O=C1NCCC1C(=O)N(c1ccc(F)c(F)c1)c1ccccc1F (centres unmarked) [Compound 5, N-(3,4-difluorophenyl)-N-(2-fluorophenyl)-2-oxo-3-pyrrolidinecarboxamide]?
Plant response rating, Waterplantain (waterplantain; 125 g ai/ha): 55; Plant response rating, Waterplantain (waterplantain; 250 g ai/ha): 70; Plant response rating, Waterplantain (waterplantain; 500 g ai/ha): 80; Plant response rating, Waterplantain (waterplantain; 1000 g ai/ha): 85; Plant response rating, Waterplantain (waterplantain; 2000 g ai/ha): 90

With O=C1NCC(c2ccc(C(F)(F)F)cc2)C1C(=O)Nc1cccc(F)c1F (centres unmarked) [Compound 80, N-(2,3-difluorophenyl)-2-oxo-4-[4-(trifluoromethyl)phenyl]-3-pyrrolidinecarboxamide] as the compound, how does the “Plant response rating, Obsd., SETFA” value (giant foxtail (SETFA); Cmpd 80 alone 62 g a.i./ha) read?
Its value is 52.

And the “Plant response rating, Obsd., SETFA” value (giant foxtail (SETFA); Cmpd 80 alone 125 g a.i./ha)?
Its value is 78.

And the “SETFA Obsd.” value (giant foxtail (SETFA); 62 g a.i./ha)?
The value was 52.

What about the “SETFA Obsd.” value (giant foxtail (SETFA); 125 g a.i./ha) of the same compound?
The value was 78.

And the “Plant response rating, Obsd., AMATA” value (waterhemp (AMATA); Cmpd 80 alone 62 g a.i./ha)?
Its value is 0.

What about the “Plant response rating, Obsd., AMATA” value (waterhemp (AMATA); Cmpd 80 alone 125 g a.i./ha) of the same compound?
Its value is 33.

And the “AMATA Obsd.” value (waterhemp (AMATA); 62 g a.i./ha)?
The value was 0.

What about the “AMATA Obsd.” value (waterhemp (AMATA); 125 g a.i./ha) of the same compound?
The value was 33.

For O=C1NC[C@H](c2cccc(C(F)(F)F)c2)[C@H]1C(=O)Nc1ccccc1F [Compound 204, (3R,4S)—N-(2-fluorophenyl)-2-oxo-4-[3-(trifluoromethyl)phenyl]-3-pyrrolidinecarboxamide], which “HETLI Obsd.” value (ducksalad (HETLI); 125 g a.i./ha) is on record?
The value was 100.

What about the “HETLI Obsd. plant response rating (scale 0 to 100)” value (ducksalad (HETLI); 125 g a.i./ha) of the same compound?
The value was 100.

What about the “HETLI Obsd.” value (ducksalad (HETLI); 500 g a.i./ha) of the same compound?
Its value is 100.

And the “HETLI Obsd. plant response rating (scale 0 to 100)” value (ducksalad (HETLI); 500 g a.i./ha)?
Its value is 100.

And the “ECHCG Obsd.” value (barnyardgrass (ECHCG); 125 g a.i./ha)?
The value was 65.

And the “ECHCG Obsd. plant response rating (scale 0 to 100)” value (barnyardgrass (ECHCG); 125 g a.i./ha)?
The value was 65.

What about the “ECHCG Obsd.” value (barnyardgrass (ECHCG); 500 g a.i./ha) of the same compound?
The value was 90.

What about the “ECHCG Obsd. plant response rating (scale 0 to 100)” value (barnyardgrass (ECHCG); 500 g a.i./ha) of the same compound?
The value was 90.

And the “CYPDI Obsd.” value ([1]; 125 g a.i./ha)?
Its value is 0.

And the “CYPDI Obsd. plant response rating (scale 0 to 100)” value ([1]; 125 g a.i./ha)?
The value was 0.

And the “CYPDI Obsd.” value ([1]; 500 g a.i./ha)?
The value was 0.

And the “CYPDI Obsd. plant response rating (scale 0 to 100)” value ([1]; 500 g a.i./ha)?
Its value is 0.

CN1CC(c2ccc(F)c(F)c2)C(C(=O)Nc2cccc(F)c2F)C1=O (centres unmarked) [Compound 303] was tested. Which “Plant response rating, Rice, Water Seeded” value (Rice, Water Seeded) did it give?
Its value is 0.
